Results taken from US7943670B2, “Liquid formulations of ractopamine” (Eli Lilly and Company, priority 2004, dated 2011).
Structures can show the parent of a compound that is named as a salt. Each block holds one compound with its values, some of them ahead of it.

Key:
Assay type in all cases: physicochemical
[1] = Solubility determination of ractopamine HCl in liquid agents (visual, 1-dram vials)
Experimental: Solubility determinations are performed in 1-dram vials. Add ractopamine HCl to a vial containing a liquid agent to give a final w/w ratio of 10% ractopamine HCl to liquid agent. Mix the solution vigorously on a vortex mixer for 2 to 6 minutes. After the mixing period, visually, assess whether the ractopamine dissolves in the liquid agent or whether insoluble material (cloudy solution or two distinct phases) remains in the vial. If the solubility is less than 10%, add additional liquid agent to dilute the ractopamine HCl to a 5-8% range. Repeat the mixing procedure and assess whether the ractopamine is soluble in the liquid agent or whether it remains insoluble at the lower concentration. Apply heat (from room temperature up to 60° C.) as needed to aid solubilization. Allow heated samples to cool to room temperature to assess solubility by visual observation for precipitant or cloudiness.

[2] = Chemical stability on storage: related substances by chromatogram comparison
[3] = Physical stability on storage (precipitation / remaining in solution); conditions: for Comment: physical stability on storage: 10% ractopamine; for physical stability on storage: 5° C. storage
[4] = Solubility of ractopamine (water, PG, PEG vehicle systems)

Solubility @ RT ([1]; 1,3 Dioxolane): <5%
Solubility @ RT ([1]; 1-Butanol): <10%
Solubility @ RT ([1]; 1-Methyl-2-Pyrrolidinone (Pharmasolve)): <5%
Solubility @ RT ([1]; 2-Pyrrolidone (2-Pyrol)): ≦5%
Solubility @ RT ([1]; 4-Methyl-1-3Dioxolane): <5%
Solubility @ RT ([1]; Acetaldehyde Phenethyl Propyl Acetal (Acetal R)): <10%
Solubility @ RT ([1]; Acetic Acid Glacial (50% solution)): ≧10%
Solubility @ RT ([1]; Acetone): <10%
Solubility @ RT ([1]; Acetophenone): <10%
Solubility @ RT ([1]; Agrimax 3 (2-pyrrolidinone, 1-Octyl 2-Pyrrolidinone, 1-Ethenylhexadecyl-, Homopolymer Sulfuric Acid Monododecyl Ester Sodium Salt)): <5%
Solubility @ RT ([1]; AgsolEx 8): <5%
Solubility @ RT ([1]; Amyl Acetate): <5%
Solubility @ RT ([1]; Aromatic 100): <5%
Solubility @ RT ([1]; Aromatic 200 (SC Solvent 200)): <5%
Solubility @ RT ([1]; Benzoic Acid (0.3% solution)): <10%
Solubility @ RT ([1]; Benzyl Alcohol): ≧5%
Solubility @ RT ([1]; Block Copolymer Pluronic L31): ≦10%
Solubility @ RT ([1]; Block Copolymer Pluronic L61, 50/50 water): ≧10%
Solubility @ RT ([1]; Block Copolymer Pluronic L61, Neat (Viscous)): ≦10%
Solubility @ RT ([1]; Caprylic/Capric Triglycerides, BP, FP (Labrafac CC)): <5%
Solubility @ RT ([1]; Caprylic/capric triglyceride (Migylol 810)): <8%
Solubility @ RT ([1]; Centrapour Clear Fry Oil): <5%
Solubility @ RT ([1]; Citric Acid (50% solution)): <5%
Solubility @ RT ([1]; Corn Oil (Mazzola)): <8%
Solubility @ RT ([1]; Cyclohexanone): <10%
Solubility @ RT ([1]; D-Gluconic Acid): <10%
Solubility @ RT ([1]; D-Glucuronic Acid (20% solution)): <5%
Solubility @ RT ([1]; Dichloromethane): <10%
Solubility @ RT ([1]; Diethylene Glycol): ≧10%
Solubility @ RT ([1]; Diethylenetriamine (DETA)): ≧10%
Solubility @ RT ([1]; Dimethyl Isosorbide): <8%
Solubility @ RT ([1]; Dipropylene glycol n-butyl ether): <10%
Solubility @ RT ([1]; Ethanolamine): ≧10%
Solubility @ RT ([1]; Ethyl Acetate): <5%
Solubility @ RT ([1]; Ethyl Alcohol): <10%
Solubility @ RT ([1]; Ethyl Lactate): <5%
Solubility @ RT ([1]; Ethylene Glycol): ≧10%
Solubility @ RT ([1]; Ethylenediamine): ≧20%
Solubility @ RT ([1]; Forward DC): <5%
Solubility @ RT ([1]; Fumaric Acid): <5%
Solubility @ RT ([1]; Gamma Butylactone): <5%
Solubility @ RT ([1]; Glutamic Acid (20% solution)): <5%
Solubility @ RT ([1]; Glycerol Formal): ≦5%
Solubility @ RT ([1]; Glyceryl and polyethylene glycol esters (Labrasol)): <5%
Solubility @ RT ([1]; Glycol Ether PM): <5%
Solubility @ RT ([1]; Hexane): <5%
Solubility @ RT ([1]; Hydroxypropyl β-Cyclodextrin (Trappsol)): <10%
Solubility @ RT ([1]; Isophorone): <10%
Solubility @ RT ([1]; Isopropyl Myristrate (Emerest 2314)): <8%
Solubility @ RT ([1]; L-Malic Acid (20% solution)): <5%
Solubility @ RT ([1]; L-Tartaric Acid 20% solution): <5%
Solubility @ RT ([1]; Lactic Acid (85% solution)): ≦10%
Solubility @ RT ([1]; Maleic Acid (20% Solution)): ≦10%
Solubility @ RT ([1]; Malonic Acid): ≧5%
Solubility @ RT ([1]; Medium chain triglyceride (Migylol 812)): <8%
Solubility @ RT ([1]; Methanol): ≧10%
Solubility @ RT ([1]; Methyl Caprylate-Caprate (Emery 2209)): <8%
Solubility @ RT ([1]; Methyl Oleate (Emery 2301)): <8%
Solubility @ RT ([1]; Mineral Oil, QA246U): <5%
Solubility @ RT ([1]; Mono-diglyceride of caprylic/capric fatty acids (Capmul MCM)): <8%
Solubility @ RT ([1]; Monomethylated Polyethylene Glycol MPEG 350, 50/50 water): ≧10%
Solubility @ RT ([1]; Monomethylated Polyethylene Glycol MPEG 350, Neat): ≦10%
Solubility @ RT ([1]; Monomethylated Polyethylene Glycol MPEG 550, 50/50 water): ≧10%
Solubility @ RT ([1]; Monomethylated Polyethylene Glycol MPEG 550, Neat): ≦10%
Solubility @ RT ([1]; N,N, Dimethylacetamide): <5%
Solubility @ RT ([1]; Nonylphenol Ethoxylate, POE-10 (Makon 10)): <5%
Solubility @ RT ([1]; Oleic Acid (Priolene 6933)): <5%
Solubility @ RT ([1]; Oleoyl Macrogolglycerides EP (Labrafil M 1944 CS)): <5%
solubility ([1]; PCO to water 50:50 w/w): greater than 10%
solubility ([1]; PSO to water 50:50 w/w): greater than 10%
Solubility @ RT ([1]; Petroleum Ether): <5%
Solubility @ RT ([1]; Petroleum distillates (naphtha), Panasol AN-2K): <5%
Solubility @ RT ([1]; Phosphoric Acid (85% Solution)): <5%
Solubility @ RT ([1]; Polyethylene Glycol Dimethyl Ether (DMPEG-350)): <5%
Solubility @ RT ([1]; Polyethylene Glycol PEG 200, 50/50 water): ≧10%
Solubility @ RT ([1]; Polyethylene Glycol PEG 200, Neat): ≦10%
Solubility @ RT ([1]; Polyethylene Glycol PEG 300, 50/50 water): ≧10%
Solubility @ RT ([1]; Polyethylene Glycol PEG 300, Neat): ≦10%
Solubility @ RT ([1]; Polyethylene Glycol PEG 400, Neat (Viscous)): ≦10%
Solubility @ RT ([1]; Polyglycol P-2000): <5%
Solubility @ RT ([1]; Polyoxyethylene-20-Sorbitan Monolaurate (Tween 20), 50/50 water): ≧10%
Solubility @ RT ([1]; Polyoxyethylene-20-Sorbitan Monolaurate (Tween 20), Neat (Viscous)): ≦10%
Solubility @ RT ([1]; Polyoxyethylene-20-Sorbitan Monooleate (Tween 80), 50/50 water): ≧10%
Solubility @ RT ([1]; Polyoxyethylene-20-Sorbitan Monooleate (Tween 80), Neat (Viscous)): ≦10%
Solubility @ RT ([1]; Polyoxyl 35 Castor Oil (Cremophor EL), 50/50 water): ≧10%
Solubility @ RT ([1]; Polyoxyl 35 Castor Oil (Cremophor EL), Neat (Viscous)): ≦10%
Solubility @ RT ([1]; Propionic Acid (20% solution)): ≧10%
Solubility @ RT ([1]; Propylene Carbonate): <5%
Solubility @ RT ([1]; Propylene Glycol Laurate (Lauroglycol FCC)): <5%
Solubility @ RT ([1]; Propylene glycol diester of caprylic/capric acid (Migylol 840)): <8%
Solubility @ RT ([1]; Soybean Oil Methyl Ester (Soy Gold 2000)): <8%
Solubility @ RT ([1]; Succinic Acid (5% Solution)): <5%
Solubility @ RT ([1]; Sunflower Oil (Wesson)): <8%
Solubility @ RT ([1]; Tetrahydrfurfuryl Alcohol (THFA)): ≦10%
Solubility @ RT ([1]; Tetrahydrofuran (THF)): <10%
Solubility @ RT ([1]; Toulene): <10%
Solubility @ RT ([1]; Triacetin): <5%
Solubility @ RT ([1]; Trichloroethylene): <10%
Solubility @ RT ([1]; Triglyceride of caprylic/capric and succinic acid (Migylol 829)): <8%
Solubility @ RT ([1]; β-Cyclodextrin Sulfbutyl Ether 7 Sodium Salt 20% Solution (Captisol)): <10%
Comment: stability ([2]; Acetic Acid Glacial (50% solution), buffered 10% formulation, generation of new related subs in stability storage): Stability discontinued
Comment: stability ([2]; Lactic Acid (85% solution), 10% formulation by heating and buffering pH, generation of new related subs in stability storage): Stability discontinued
Comment: new related sub peaks in stability studies ([2]; MPEG solvents (MPEG 350, 550)): number of new related sub
Comment: reaction with solvent ([2]; Methanol, forms methoxy ractopamine related substance): Methanol reacts with
Comment: new related sub peaks in stability studies ([2]; PEG solvents (PEG 200, 300)): number of new related sub
Comment: new related substance peaks in stability studies ([2]; Pluronic L61 to water at 50/50, 10% ractopamine): a number of new related
Comment: stability ([2]; Propionic Acid (20% solution), generated a number of large related sub peaks): Stability discontinued -
Comment: physical stability on storage ([3]; Polyoxyethylene 20 Sorbitan Monolaurate to water below 50/50, prolonged storage at 5° C.): below 50/50 precipitate after
Comment: physical stability on storage ([3]; Polyoxyethylene-20-Sorbitan Monooleate to water below 50/50, prolonged storage at 5° C.): below 50/50 precipitate after
Comment: physical stability on storage ([3]; Polyoxyl 35 Castor Oil to water at 50/50, short term (3 months) storage at 5° C.): somewhat viscous and precipitate
Structure (SMILES): CC(CCc1ccc(O)cc1)NCC(O)c1ccc(O)cc1 (stereo not drawn) [ractopamine HCl]

solubility ([1]; PSL to water 50:50 w/w): greater than 10%
new related substances ([2]; aqueous PSL vehicle, storage up to 24 months at 25° C. and 12 months at 40° C.): < 0.2%
new related substances ([2]; aqueous PSO vehicle, storage up to 24 months at 25° C.): < 0.2%
formation of new related substances during storage ([2]; propylene glycol solutions, normal room temperature (~25° C.)): new related substances form slowly
solubility ([4]; 100% propylene glycol (PG) or aqueous vehicle system containing PG): > 25 % w/w
solubility (capable of dissolving) ([4]; vehicle 50% PG and 50% water, 25° C.): at least 10%
concentration achievable in solution ([4]; vehicle system containing PEG 200, PEG 300, or both): > 20%
physical stability on storage ([3]; 10% ractopamine formulations, PSO to water below 50/50 w/w): precipitate out
physical stability on storage ([3]; Ten percent ractopamine formulations, PCO to water below 50/50 w/w): precipitate out
Structure (SMILES): CC(CCc1ccc(O)cc1)NCC(O)c1ccc(O)cc1 (stereo not drawn) [ractopamine]
reaction with solvent ([2]; PEG 200 / PEG 300 vehicle, not reversible under normal storage conditions): form covalently bonded related substances
